Assay results reported in US20030138430A1, “Pharmaceutical comprising an agent that blocks the cell cycle and an antibody” (priority 2002, published 2003).
Counter-ions that a name gives are not always drawn.

Key:
[1] = tested on: HT-29 colon adenocarcinoma tumors; assay: Targeting of 177Lu-labelled antibody to Ep-CAM-positive HT-29 xenografts; type: in vivo, mouse
Protocol: Human colon adenocarcinoma (HT-29) tumors were initiated by subcutaneous implantation into female CD-1 nude mice (Charles River). When the tumors reached 200-300 mg, animals were divided into groups of five. […] A control group was dosed with 5-fluorouracil (5-FU) intraperitoneally at 20 mg/kg on days 1 and 5. […] Blood, spleen, liver, lung, kidney, femur, and tumor were harvested on days 1, 3 and 5 post-antibody-dose for direct gamma counting (Packard).

[2] = tested on: erbB2 receptor on MCF-7 and MDA-MB-468 breast adenocarcinoma cells; assay: Quantitation of cell surface erbB2 presentation; type: cell-based; conditions: for cell surface erbB2 presentation: compared with untreated controls (Example 2); for cell surface presentation of erbB2 receptor: Example 3
Protocol: (§1) Populations of adenocarcinoma cells were evaluated for distribution in G0/G1, S and G2/M phases of the cell cycle as well as for erbB2/neu presentation. Cells were dissociated from the culture plates using Versene (Gibco) and resuspended in calcium- and magnesium-free phosphate-buffered saline containing bovine serum albumin and sodium azide. Exactly 2×10^5 cells were stained with R-Phycoerythrin-conjugated-anti-HER-2/neu murine IgG (Cat. 340552, Becton Dickinson) in buffer containing 100 μg/mL mouse IgG (Cat. 15381, Sigma). Cells were fixed with FACSLyse (Cat. 92-002, Becton Dickinson) followed by a short post-fix with ethanol at −20° C. Cellular DNA was stained with DAPI (Cat. D1306, Molecular Probes) in buffer containing RNase A (Sigma).
Sample data were collected on a FACStar^PLUS® flow cytometer (Becton Dickinson) equipped with a 488 nm argon ion laser in position 1 and a 350 nm argon ion laser in position 2. For each cell analyzed, data was collected on signal pulses from linear forward scatter height and width, linear area and width of DAPI fluorescence for DNA, and logarithmic fluorescence height of the HER-2/neu antibody probe. The resulting listmode files were processed using Winlist 3D© software (Verity Software House, Topsham, Me.). […] The remaining cells were analyzed for cell cycle position by manual gating and HER-2/neu surface antigen density. Using the bead standard system described in Example 2, values of mean fluorescence intensity for HER-2/neu and other antigens were converted to values of “Antibodies Bound per Cell” (ABC) during analysis.
Cells were exposed to Gemzar (gemcitabine (GMZ), Lilly, Indianapolis, Ind.) for 24 hours. […] Following drug exposure, cells were washed and cultured for another 2-5 days prior to analysis for antigen presentation and cell cycle status, except for those treated with BB-94. Cells were dissociated from the culture plates using Versene (Gibco) and resuspended in calcium- and magnesium-free phosphatebuffered saline containing bovine serum albumin and sodium azide. Exactly 2×10^5 cells were stained as described in Example 1. Antigen presentation was quantified against calibrated bead standards calibrated by the vendor for murine IgG binding capacity (Quantum Simply Cellular Bead, Cat. QSC-100, Sigma); calibration beads were stained with R-phycoerythrin-conjugated anti-HER-2/neu murine IgG. Plots of fluorescence intensity against bead IgG binding capacity were constructed, and molecules of IgG bound per cell was read from the fluorescence intensity of the stained cells.
Cells were exposed to interferons continuously for 2-5 days. […] Exactly 2×10^5 cells were stained as described in Example 1, and antigen expression was quantified as described in Example 2.

[3] = tested on: PC-3 prostatic adenocarcinoma cells; conditions: PC-3 cells; Navelbine 30 nM alone or with cisplatin; GW3622W94; human PBMC effectors 50:1; 6 hours
Protocol: Ep-CAM Antigen Expression and ADCC of Prostatic Adenocarcinoma in Culture. Biological Effectiveness in vitro as Measured by Antibody-dependent Cellular Cytotoxicity. […] Target cells were cultured overnight with 100 μCi Na2^51CrO4 (Amersham) in media, and then washed 3 times with RPMI-1640 containing 2 mM L-glutamine, 50 μg/mL gentamicin, and 10% heat-inactivated FBS. […] Spontaneous lysis wells (CPMspontaneous) received media (no effectors) and total lysis wells (CPMTotal) received Triton-X-100. Cultures were incubated for 6 hours at 37° C./5% CO2, then supernatants were harvested using Skatron filter frames (Skatron Instruments, Sterling Va.). Radioactivity was counted in a gamma counter and the percentage specific release, corrected for spontaneous lysis, was calculated.

[4] = tested on: Ep-CAM antigen on HT-29 colon adenocarcinoma cells; assay: Internalization of lutetium-177-labeled GW1208W95 (anti-Ep-CAM); type: cell-based, human; conditions: HT-29 cells pretreated with drug; 37° C
Protocol: Internalization of Lutetium-177-labeled GW1208W95 (anti-Ep-CAM) by Human Colon Adenocarcinoma Cells. Colon adenocarcinoma cells (HT-29) were plated in 6-well plates and cultured. Subconfluent cells were exposed to cytotoxic drugs for up to 24 hours. Cells were washed and cultured for another 2-5 days. The plates were put on ice (0° C.) for minimum of 60 minutes and lutetium-177-labeled coupled to 6,6″-bis {N,N,N″,N″-tetra(carboxymethyl)aminomethyl)-4′-(3-bromoacetamido-4-methoxyphenyl-2,2′:6,2″-terpyridine) at 0.5-1.0 mCi/mg was added at a final concentration of 6.7 nM. Cells were incubated at 0° C. for 3.5 hr. Following incubation at 0° C., the cells were washed with 2.5 mL of ice-cold phosphate-buffered saline with human serum albumin (1%) (PBS-HSA). Then 2.5 mL pre-warmed media was added and the labeled cells were incubated at 37° C. At the indicated time points, cells were washed twice with 2.5 mL PBS-HSA. Cells were incubated for 5 minutes at room temperature with 2.5 mL 0.1 M NaCl in 0.05 M glycine (pH 2.8) to detemine labeled antibody bound to the target surface antigen. The incubation was repeated and counts pooled. Internalized counts were determined by solubilization of the cell layer with 1.0 mL of 1 N NaOH. Samples were counted using a Packard CliniGamma 5000. Data was normalized to cell count for each well.
Colon adenocarcinoma cells (HT-29) in culture were pretreated with chemotherapeutic agents as described previously for the evaluation of cell cycle and cell surface antigen quantitation. […] Cells were pulse-labeled with ^177Lu-GW1208W95 (6.7 nM @ 0.5-1.0 mCi/mg protein) for a minimum of 60 minutes at 0° C. on ice to inhibit surface antigen internalization. After washing away of excess radiolabeled antibody fresh media was added, and the cells were incubated at 37° C. for time indicated. Surface-bound antibody was eluted with isotonic buffer and both acid-labile (surface-bound) and acid-stable (internalized) radioactivity were quantitated.

[5] = tested on: erbB2 receptor on NHBE and HMEC normal epithelial cells; assay: Quantitation of cell surface erbB2 presentation on normal epithelial cells; type: cell-based, human; conditions: compared with untreated controls
Protocol: Cells were exposed to Gemzar (gemcitabine (GMZ), Lilly, Indianapolis, Ind.) or 5FU (Adrucil®, Pharmacia & Upjohn) for 24 hours. Cells were exposed to interferons continuously for 2-5 days. Following drug exposure, cells were washed and cultured for another 2-5 days prior to analysis for antigen presentation and cell cycle status, except for those treated with interferons. Cells were dissociated from the culture plates using a collagenase cocktail (1:1:1,Types I, II, and IV, 0.1% (wt/vol), Gibco) in calcium- and magnesium-free phosphate-buffered saline. Cells were stained and cytometric data was collected as described in Example 1, and antigen expression was quantified as described in Example 2.

[6] = Navelbine tolerability in CD-1 nude mice; conditions: intravenous, days 1 and 5, CD-1 nude mice
Protocol: Human colon adenocarcinoma (HT-29) tumors were initiated by subcutaneous implantation into female CD-1 nude mice (Charles River). When the tumors reached 200-300 mg, animals were divided into groups of five. Navelbine was injected intravenously at a dosage of 28 mg/kg in vehicle (5% dextrose in distilled water) on days 1 and 5.

[7] = tested on: MCF-7 and MDA-MB-468 breast adenocarcinoma cells; assay: Cell cycle analysis by flow cytometry (DAPI); type: cell-based; conditions: Example 3
Protocol: as §1, with “Cellular DNA was stained with DAPI (Cat. D1306, Molecular Probes) in buffer containing RNase A (Sigma).” left out
Sample data were collected on a FACStar^PLUS® flow cytometer (Becton Dickinson) equipped with a 488 nm argon ion laser in position 1 and a 350 nm argon ion laser in position 2. For each cell analyzed, data was collected on signal pulses from linear forward scatter height and width, linear area and width of DAPI fluorescence for DNA, and logarithmic fluorescence height of the HER-2/neu antibody probe. […] The remaining cells were analyzed for cell cycle position by manual gating and HER-2/neu surface antigen density. Using the bead standard system described in Example 2, values of mean fluorescence intensity for HER-2/neu and other antigens were converted to values of “Antibodies Bound per Cell” (ABC) during analysis. […]

[8] = tested on: HT-29 colon adenocarcinoma cells; assay: Cell cycle analysis by flow cytometry (propidium iodide); type: cell-based, human; conditions: HT-29 cells; media control 6.3%
Protocol: (§2) FIG. 7. Cell Cycle Analysis and Quantitation of Antigen Expression. Populations of adenocarcinoma cells were evaluated for distribution in G0/G1, S, and G2/M phases of the cell cycle as well as Ep-CAM presentation on the cell surface. […] Cells were exposed to 5-fluorouracil (5-FU) for 24 hours, and to the interferons continuously for 2-5 days. Cells were washed and cultured for another 2 days prior to analysis for antigen presentation except for cells exposed to interferons. Cells were lightly trypsinized and mechanically detached from the culture flasks and resuspended in calcium- and magnesium-free phosphate-buffered saline containing bovine serum albumin and sodium azide. Exactly 2×10^5 cells were stained with FITC-323/A3 murine IgG antibody or FITC-murine IgG (control). Cells were fixed with cold paraformaldehyde, then permeabilized for DNA staining with Tween-20. Cellular DNA was stained with a propidium iodide buffer containing RNAse A. Listmode data were acquired using Lysis II software on a FACScan flow cytometer (Becton Dickinson Immunocytometry Systems) equipped with a 488 nm laser. Cell cycle analysis was done using CellFit software for SOBR modeling of the histograms (where possible, otherwise manual estimations were employed) on Cell-Fit. Ep-CAM antigen presentation was quantitated by comparison of the mean fluorescence intensity of fluorescein-conjugated 323/A3 bound to cultured cells with the fluorescence intensity of calibrated microbead standards and evaluated separately using histogram analysis in WinList (Verity Software House). Standard curves of calibration bead concentration versus fluorescence intensity were constructed in SoftMax Pro (Molecular Devices, Inc.), and fluorescence intensity of stained cells was used to calculate the number of antigen molecules per cell for the population.
(§3) Adenocarcinoma cells (HT-29) were exposed to Navelbine or Taxol or combinations of drugs as indicated in FIG. 7 and the cells were evaluated for cell surface Ep-CAM presentation in addition to cell cycle distribution. […]

[9] = tested on: Ep-CAM antigen on HT-29 colon adenocarcinoma cells; assay: Quantitation of cell surface Ep-CAM antigen with FITC-323/A3; type: cell-based, human; conditions: HT-29 cells after drug exposure, vs media control
Protocol: as §2, §3

[10] = tested on: erbB2 receptor on BT-474 breast and NCI H322 lung adenocarcinoma cells; assay: Quantitation of cell surface erbB2 presentation, high erbB2 cell lines; type: cell-based; conditions: BT-474 and H322
Protocol: (§4) Cells were dissociated from the culture plates using Versene (Gibco) and resuspended in calcium- and magnesium-free phosphate-buffered saline containing bovine serum albumin and sodium azide. Exactly 2×10^5 cells were stained with R-Phycoerythrin-conjugated-anti-HER-2/neu murine IgG (Cat. 340552, Becton Dickinson) in buffer containing 100 μg/mL mouse IgG (Cat. 15381, Sigma). Cells were fixed with […]. 92-002, Becton Dickinson) followed by a short post-fix with ethanol at -20° C. Cellular DNA was stained with DAPI (Cat. D1306, Molecular Probes) in buffer containing RNase A (Sigma). […] For each cell analyzed, data was collected on signal pulses from linear forward scatter height and width, linear area and width of DAPI fluorescence for DNA, and logarithmic fluorescence height of the HER-2/neu antibody probe. […] The remaining cells were analyzed for cell cycle position by manual gating and HER-2/neu surface antigen density. Using the bead standard system described in Example 2, values of mean fluorescence intensity for HER-2/neu and other antigens were converted to values of “Antibodies Bound per Cell” (ABC) during analysis. […] Antigen presentation was quantified against calibrated bead standards calibrated by the vendor for murine IgG binding capacity (Quantum Simply Cellular Bead, Cat. QSC-100, Sigma); calibration beads were stained with R-phycoerythrin-conjugated anti-HER-2/neu murine IgG. […]

[11] = tested on: SK-BR-3, MCF-7 and BT-474 breast adenocarcinoma cell lines; type: cell-based
Protocol: Cells were exposed to Gemzar (gemcitabine (GMZ), Lilly, Indianapolis, Ind.) for 24 hours. […] Cells were exposed to interferons continuously for 2-5 days.

[12] = tested on: BT-474 breast and NCI H322 lung adenocarcinoma cells; assay: Cell cycle analysis by flow cytometry (DAPI), high erbB2 cell lines; type: cell-based; conditions: BT-474 and H322; BB-94 10 μM alone
Protocol: as §4

CCC1=C[C@@H]2CN(C1)Cc1c([nH]c3ccccc13)[C@@](C(=O)OC)(c1cc3c(cc1OC)N(C)[C@H]1[C@@](O)(C(=O)OC)[C@H](OC(C)=O)[C@]4(CC)C=CCN5CC[C@]31[C@@H]54)C2 (relative stereo) [Navelbine, 3′, 4′-didehydro-4′-deoxy-C′-norvincaleukoblastine [R-(R*,R*)-2,3-dihydroxybutanedioate (1:2)(salt)]]
tumor regression ([1]; Navelbine 28 mg/kg i.v. days 1 and 5, HT-29 xenografts): minimal tumor regression
increase in tumor targeting of 177Lu-labelled antibody ([1]; Navelbine pretreatment 28 mg/kg i.v. days 1 and 5, relative to vehicle- or 5-FU-treated animals): 2 fold
cell surface erbB2 presentation [2]: significant increases
ADCC lysis of antibody-coated tumor target cells after drug pre-treatment [3]: improved
internalization of the radiolabelled antibody 177Lu-GW1208W95 [4]: significantly inhibited internalization
cell surface erbB2 presentation [5]: no significant increases
LD10 [6]: ~28 mg/kg

interferon-alpha
cell surface presentation of erbB2 receptor [2]: not significantly increased
cell cycle distribution [7]: not significantly different from media control cells
cells in S and G2/M phases combined [8]: 12%
cell surface Ep-CAM expression [9]: not significantly increased

Nc1ccn([C@@H]2O[C@H](CO)[C@@H](O)C2(F)F)c(=O)n1 [Gemzar, gemcitabine]
cell surface erbB2 presentation [10]: significant increases
toxicity to cell lines based on the 18 s values [11]: toxic

interferon-gamma: interferon-gamma
cell surface presentation of erbB2 receptor [2]: not significantly increased
cell cycle distribution [7]: not significantly different from media control cells
cells in S and G2/M phases combined [8]: 11.5%
cell surface Ep-CAM expression [9]: not significantly increased

CC(=O)O[C@H]1C(=O)[C@@]2(C)[C@H]([C@H](OC(=O)c3ccccc3)[C@]3(O)C[C@H](OC(=O)[C@H](O)[C@@H](NC(=O)c4ccccc4)c4ccccc4)C(C)=C1C3(C)C)[C@]1(OC(C)=O)CO[C@@H]1C[C@@H]2O [Taxol, 5β, 20 epoxy-1,2α,4,7β,10β,13α-hexahydroxytax-11-en-9-one 4,10-diacetate 2-benzoate 13-ester with (2R, 3S)-N-benzoyl-3-phenylisoserine]
cell surface erbB2 presentation [2]: significant increases
internalization of the radiolabelled antibody 177Lu-GW1208W95 [4]: significantly inhibited internalization
cell surface erbB2 presentation [5]: no significant increases

O=c1[nH]cc(F)c(=O)[nH]1 [5-FU, 5-fluorouracil]
cells in S and G2/M phases combined [8]: 7.9%
internalization of the radiolabelled antibody 177Lu-GW1208W95 [4]: extensive internalization
cell surface Ep-CAM expression [9]: not significantly increased

CNC(=O)[C@H](Cc1ccccc1)NC(=O)[C@H](CC(C)C)[C@H](CSc1cccs1)C(=O)NO [BB-94]
cell cycle distribution [12]: did not affect cell cycle distribution
cell surface erbB2 presentation [10]: increase in erbB2 presentation

B1: interferon-gamma: interferon-gamma (protein, UniProt P01579 24-161, looked up)
Interferon gamma: QDPYVKEAENLKKYFNAGHSDVADNGTLFLGILKNWKEESDRKIMQSQIVSFYFKLFKNFKDDQSIQKSVETIKEDMNVKFFNSNKKKRDDFEKLTNYSVTDLNVQRKAIHELIQVMAELSPAAKTGKRKRSQMLFRG
toxicity to cell lines based on the 18 s values [11]: toxic
